EC50 data for six compounds are collected here from patent publication US20200354426A1 (MEDIMMUNE LIMITED, priority 2016, published 2020).

The structures appear in SMILES notation. Numbered stars: 1 amine (or outer) side, 2 acyl side, 3 side chain; on linkers, the order of the positions; unused ones are H or OH. Side chains are listed from the residue outwards. Peptide text beside a SMILES is read from it. * marks the point of attachment. γGlu = O=C(O)[C@H](CCC(=O)[*:2])N[*:1]; Palmitoyl = CCCCCCCCCCCCCCCC(=O)*

What all share (experiment): cAMP activity assay in assay medium (assay 1)
Type in all cases: cell-based

One assay addresses T1, Human GlucR (Homo sapiens, UniProt P47871).
T1 construct: expressed in transfected cells
The note with it: assay medium; Table 4; read-out: hGlucR EC50. An excerpt: (§1) Biological Activity of Peptides in Cell-Based cAMP Activity Assay (Assay 1):
(§2) All sample dilutions were made in duplicate.

For a further assay, the target named is T2, Human GIPr (Homo sapiens, UniProt P48546).
T2 construct: expressed in transfected cells
T2 sequence (P48546 22-466): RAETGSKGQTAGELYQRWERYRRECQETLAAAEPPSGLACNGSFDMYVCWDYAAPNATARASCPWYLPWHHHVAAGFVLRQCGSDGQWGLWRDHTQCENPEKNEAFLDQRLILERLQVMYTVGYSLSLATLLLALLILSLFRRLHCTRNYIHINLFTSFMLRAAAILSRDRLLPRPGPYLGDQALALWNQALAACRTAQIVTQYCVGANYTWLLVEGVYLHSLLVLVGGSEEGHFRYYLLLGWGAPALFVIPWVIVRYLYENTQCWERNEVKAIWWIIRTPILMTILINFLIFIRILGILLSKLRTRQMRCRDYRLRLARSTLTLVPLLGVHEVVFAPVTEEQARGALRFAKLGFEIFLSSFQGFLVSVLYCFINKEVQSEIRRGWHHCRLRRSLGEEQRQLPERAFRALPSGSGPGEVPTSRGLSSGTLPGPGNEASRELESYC
The note with it: assay medium; Table 4; read-out: hGIPR EC50.
From the text: as §1, §2

In another assay the target is Human GLP1R (Homo sapiens, UniProt P43220). Also on record: expressed in transfected cells. The note with it: assay medium; Table 4; read-out: hGLP1R EC50.
From the text: as §1, §2

Human GLP1R, sequence (P43220 24-463): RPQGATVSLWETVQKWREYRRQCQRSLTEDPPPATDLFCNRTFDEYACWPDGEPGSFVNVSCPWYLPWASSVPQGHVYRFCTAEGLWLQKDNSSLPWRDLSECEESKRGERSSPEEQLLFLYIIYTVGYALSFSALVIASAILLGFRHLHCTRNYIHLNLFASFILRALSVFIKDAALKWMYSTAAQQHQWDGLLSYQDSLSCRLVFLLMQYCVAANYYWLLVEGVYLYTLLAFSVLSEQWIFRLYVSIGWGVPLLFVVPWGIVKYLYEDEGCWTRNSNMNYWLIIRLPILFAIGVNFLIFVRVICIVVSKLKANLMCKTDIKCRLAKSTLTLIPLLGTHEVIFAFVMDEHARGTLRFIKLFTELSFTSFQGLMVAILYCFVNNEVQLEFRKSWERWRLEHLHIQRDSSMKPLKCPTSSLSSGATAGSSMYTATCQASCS
T1 sequence (P47871 26-477): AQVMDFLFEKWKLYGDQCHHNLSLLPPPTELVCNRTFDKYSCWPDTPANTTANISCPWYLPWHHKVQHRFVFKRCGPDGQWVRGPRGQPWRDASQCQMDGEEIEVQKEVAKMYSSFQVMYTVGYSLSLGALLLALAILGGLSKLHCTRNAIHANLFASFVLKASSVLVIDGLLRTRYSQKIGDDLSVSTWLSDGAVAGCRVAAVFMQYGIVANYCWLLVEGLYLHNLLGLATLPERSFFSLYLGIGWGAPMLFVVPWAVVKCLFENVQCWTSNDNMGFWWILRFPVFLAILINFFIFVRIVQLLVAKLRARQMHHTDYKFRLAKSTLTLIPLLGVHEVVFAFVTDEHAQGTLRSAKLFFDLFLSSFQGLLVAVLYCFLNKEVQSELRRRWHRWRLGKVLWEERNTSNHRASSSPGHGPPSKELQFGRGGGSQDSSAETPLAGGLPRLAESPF

Consider `CCCCCCCCCCCCCCCC(=O)N[C@@H](CCC(=O)NCCCC[C@H](NC(=O)[C@H](CO)NC(=O)[C@H](CC(=O)O)NC(=O)[C@H](CC(C)C)NC(=O)[C@H](Cc1ccc(O)cc1)NC(=O)[C@H](CCCCN)NC(=O)[C@H](CO)NC(=O)[C@H](Cc1ccc(O)cc1)NC(=O)[C@H](CC(=O)O)NC(=O)[C@H](CO)NC(=O)[C@@H](NC(=O)[C@H](Cc1ccccc1)NC(=O)[C@@H](NC(=O)CNC(=O)[C@H](CCC(N)=O)NC(=O)CNC(=O)[C@@H](N)Cc1c[nH]cn1)[C@@H](C)O)[C@@H](C)O)C(=O)N[C@@H](CCCNC(=N)N)C(=O)N[C@@H](C)C(=O)N[C@@H](CCCNC(=N)N)C(=O)N[C@@H](CC(=O)O)C(=O)N[C@@H](Cc1ccccc1)C(=O)N[C@H](C(=O)N[C@@H](CCC(=O)O)C(=O)N[C@@H](Cc1c[nH]c2ccccc12)C(=O)N[C@@H](CC(C)C)C(=O)N[C@H](C(=O)N[C@@H](C)C(=O)NCC(=O)NCC(N)=O)C(C)C)C(C)C)C(=O)O` [g660] (H-HGQGTFTSDYSKYLDSK([γGlu-Palmitoyl])RARDFVEWLVAGG-NH2; N-terminus assumed), for which the EC50 at Human GlucR amounted to 1.52 nM; at Human GIPr, 332 nM; on Human GLP1R, 1.06 nM.
Taken in the same sequence, the figures for `CCCCCCCCCCCCCCCC(=O)N[C@@H](CCC(=O)NCCCC[C@H](NC(=O)[C@H](Cc1ccc(O)cc1)NC(=O)[C@H](CCCCN)NC(=O)[C@H](CO)NC(=O)[C@H](Cc1ccc(O)cc1)NC(=O)[C@H](CC(=O)O)NC(=O)[C@H](CO)NC(=O)[C@@H](NC(=O)[C@H](Cc1ccccc1)NC(=O)[C@@H](NC(=O)CNC(=O)[C@H](CCC(N)=O)NC(=O)[C@H](CO)NC(=O)[C@@H](N)Cc1c[nH]cn1)[C@@H](C)O)[C@@H](C)O)C(=O)N[C@@H](CC(=O)O)C(=O)N[C@@H](CO)C(=O)N[C@@H](CCCNC(=N)N)C(=O)N[C@@H](CO)C(=O)N[C@@H](C)C(=O)N[C@@H](CCC(N)=O)C(=O)N[C@@H](CC(=O)O)C(=O)N[C@@H](Cc1ccccc1)C(=O)N[C@H](C(=O)N[C@@H](CCC(N)=O)C(=O)N[C@@H](Cc1c[nH]c2ccccc12)C(=O)N[C@@H](CC(C)C)C(=O)N[C@H](C(=O)N[C@@H](C)C(=O)NCC(=O)NCC(N)=O)C(C)C)C(C)C)C(=O)O` [g670] (H-HSQGTFTSDYSKYK([γGlu-Palmitoyl])DSRSAQDFVQWLVAGG-NH2; N-terminus assumed) were 0.008 nM, 14.9 nM and 0.0203 nM.
The like results for `CCCCCCCCCCCCCCCC(=O)N[C@@H](CCC(=O)NCCCC[C@H](NC(=O)[C@H](CO)NC(=O)[C@H](CC(=O)O)NC(=O)[C@H](CC(C)C)NC(=O)[C@H](Cc1ccc(O)cc1)NC(=O)[C@H](CCC(=O)O)NC(=O)[C@H](CO)NC(=O)[C@H](Cc1ccc(O)cc1)NC(=O)[C@H](CC(=O)O)NC(=O)[C@H](CO)NC(=O)[C@@H](NC(=O)[C@H](Cc1ccccc1)NC(=O)[C@@H](NC(=O)CNC(=O)[C@H](CCC(N)=O)NC(=O)CNC(=O)[C@@H](N)Cc1c[nH]cn1)[C@@H](C)O)[C@@H](C)O)C(=O)N[C@@H](CCCNC(=N)N)C(=O)N[C@@H](C)C(=O)N[C@@H](CCCNC(=N)N)C(=O)N[C@@H](CC(=O)O)C(=O)N[C@@H](Cc1ccccc1)C(=O)N[C@H](C(=O)N[C@@H](C)C(=O)N[C@@H](Cc1c[nH]c2ccccc12)C(=O)N[C@@H](CC(C)C)C(=O)N[C@H](C(=O)N[C@@H](C)C(=O)NCC(=O)NCC(N)=O)C(C)C)C(C)C)C(=O)O` [g675] (H-HGQGTFTSDYSEYLDSK([γGlu-Palmitoyl])RARDFVAWLVAGG-NH2; N-terminus assumed) were, in that order, 38.4 nM, 1610 nM and 0.151 nM.
In the case of `CCCCCCCCCCCCCCCC(=O)N[C@@H](CCC(=O)NCCCC[C@H](NC(=O)[C@H](CO)NC(=O)[C@H](CC(=O)O)NC(=O)[C@H](CC(C)C)NC(=O)[C@H](Cc1ccc(O)cc1)NC(=O)[C@H](CCCCN)NC(=O)[C@H](CO)NC(=O)[C@H](Cc1ccc(O)cc1)NC(=O)[C@H](CC(=O)O)NC(=O)[C@H](CO)NC(=O)[C@@H](NC(=O)[C@H](Cc1ccccc1)NC(=O)[C@@H](NC(=O)CNC(=O)[C@H](CCC(N)=O)NC(=O)CNC(=O)[C@@H](N)Cc1c[nH]cn1)[C@@H](C)O)[C@@H](C)O)C(=O)N[C@@H](CCCNC(=N)N)C(=O)N[C@@H](C)C(=O)N[C@@H](CCC(=O)O)C(=O)N[C@@H](CC(=O)O)C(=O)N[C@@H](Cc1ccccc1)C(=O)N[C@H](C(=O)N[C@@H](CCC(N)=O)C(=O)N[C@@H](Cc1c[nH]c2ccccc12)C(=O)N[C@@H](CC(C)C)C(=O)N[C@H](C(=O)N[C@@H](C)C(=O)NCC(=O)NCC(N)=O)C(C)C)C(C)C)C(=O)O` [g678] (H-HGQGTFTSDYSKYLDSK([γGlu-Palmitoyl])RAEDFVQWLVAGG-NH2; N-terminus assumed), the half-maximal effective concentration (EC50) was 4.52 nM on Human GlucR, 123 nM at Human GIPr and 0.106 nM at Human GLP1R.
The like results for `CCCCCCCCCCCCCCCC(=O)N[C@@H](CCC(=O)NCCCC[C@H](NC(=O)[C@H](CO)NC(=O)[C@H](CC(=O)O)NC(=O)[C@H](CC(C)C)NC(=O)[C@H](Cc1ccc(O)cc1)NC(=O)[C@H](CCCCN)NC(=O)[C@H](CO)NC(=O)[C@H](Cc1ccc(O)cc1)NC(=O)[C@H](CC(=O)O)NC(=O)[C@H](CO)NC(=O)[C@@H](NC(=O)[C@H](Cc1ccccc1)NC(=O)[C@@H](NC(=O)CNC(=O)[C@H](CCC(N)=O)NC(=O)CNC(=O)[C@@H](N)Cc1c[nH]cn1)[C@@H](C)O)[C@@H](C)O)C(=O)N[C@@H](CCCNC(=N)N)C(=O)N[C@@H](C)C(=O)N[C@@H](CCC(N)=O)C(=O)N[C@@H](CC(=O)O)C(=O)N[C@@H](Cc1ccccc1)C(=O)N[C@H](C(=O)N[C@@H](CCC(=O)O)C(=O)N[C@@H](Cc1c[nH]c2ccccc12)C(=O)N[C@@H](CC(C)C)C(=O)N[C@H](C(=O)N[C@@H](C)C(=O)NCC(=O)NCC(N)=O)C(C)C)C(C)C)C(=O)O` [g679] (H-HGQGTFTSDYSKYLDSK([γGlu-Palmitoyl])RAQDFVEWLVAGG-NH2; N-terminus assumed) were, in that order, 0.189 nM, 117 nM and 0.135 nM.
Taken in the same sequence, the figures for `CCCCCCCCCCCCCCCC(=O)N[C@@H](CCC(=O)NCCCC[C@H](NC(=O)[C@H](CO)NC(=O)[C@H](CC(=O)O)NC(=O)[C@H](CC(C)C)NC(=O)[C@H](Cc1ccc(O)cc1)NC(=O)[C@H](CCCCN)NC(=O)[C@H](CO)NC(=O)[C@H](Cc1ccc(O)cc1)NC(=O)[C@H](CC(=O)O)NC(=O)[C@H](CO)NC(=O)[C@@H](NC(=O)[C@H](Cc1ccccc1)NC(=O)[C@@H](NC(=O)CNC(=O)[C@H](CCC(N)=O)NC(=O)CNC(=O)[C@@H](N)Cc1c[nH]cn1)[C@@H](C)O)[C@@H](C)O)C(=O)N[C@@H](CCCNC(=N)N)C(=O)N[C@@H](C)C(=O)N[C@@H](CCC(=O)O)C(=O)N[C@@H](CC(=O)O)C(=O)N[C@@H](Cc1ccccc1)C(=O)N[C@H](C(=O)N[C@@H](CCC(=O)O)C(=O)N[C@@H](Cc1c[nH]c2ccccc12)C(=O)N[C@@H](CC(C)C)C(=O)N[C@H](C(=O)N[C@@H](C)C(=O)NCC(=O)NCC(N)=O)C(C)C)C(C)C)C(=O)O` [g680] (H-HGQGTFTSDYSKYLDSK([γGlu-Palmitoyl])RAEDFVEWLVAGG-NH2; N-terminus assumed) were 3.68 nM, 96.7 nM and 0.195 nM.

The term EC50 denotes the concentration needed to bring the measured effect to its halfway point.
